{
  "source": "PubChem BioAssay AID270",
  "about": "(DTP/NCI, 2004)",
  "system": "BDF1 mice, s.c. Lewis lung carcinoma, T/C %",
  "experiment": "NCI In Vivo Anticancer Drug Screen. Data for tumor model Lewis Lung Carcinoma (subcutaneous) in B6D2F1 (BDF1) mice",
  "procedure,_shortened": "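Readout: survival or tumor size, expressed as treated (T) over vehicle control (C). Transplantable tumor implanted in mice; compound given to the treated group.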",
  "note": "“And” between values parts separate entries of the source, which are not always exact repeats. Equal entries are not always repeated. Results filed as inconclusive are left out.",
  "data": [
    {"smiles": "CCN1C=C/C(=C\\C=C/c2cc[n+](CC)c3ccccc23)c2ccccc21", "values": [
      {"measurement": "T/C", "setting": "endpoint: median survival time, dose: 6.0 micrograms/kg/injection, schedule: Q01DX009 (ip), vehicle: saline, higher = longer survival", "result": "114 % of control"},
      {"measurement": "T/C", "setting": "endpoint: median survival time, dose: 6.2 micrograms/kg/injection, schedule: Q01DX009 (ip), vehicle: saline with Tween-80, higher = longer survival", "result": "104 % of control"},
      {"measurement": "T/C", "setting": "endpoint: median survival time, dose: 12.0 micrograms/kg/injection, schedule: Q01DX009 (ip), vehicle: saline, higher = longer survival", "result": "209 % of control"},
      {"measurement": "T/C", "setting": "endpoint: median survival time, dose: 12.5 micrograms/kg/injection, schedule: Q01DX009 (ip), vehicle: saline with Tween-80, higher = longer survival", "result": "98 % of control"},
      {"measurement": "T/C", "setting": "endpoint: median survival time, dose: 25.0 micrograms/kg/injection, schedule: Q01DX009 (ip), vehicle: saline with Tween-80, higher = longer survival", "result": "101 % of control"},
      {"measurement": "T/C", "setting": "endpoint: median survival time, dose: 25.0 micrograms/kg/injection, schedule: Q01DX009 (ip), vehicle: saline, higher = longer survival", "result": "208 % of control"},
      {"measurement": "T/C", "setting": "endpoint: median survival time, dose: 50.0 micrograms/kg/injection, schedule: Q01DX009 (ip), vehicle: saline with Tween-80, higher = longer survival", "result": "98 % of control"},
      {"measurement": "T/C", "setting": "endpoint: median survival time, dose: 50.0 micrograms/kg/injection, schedule: Q01DX009 (ip), vehicle: saline, higher = longer survival", "result": "209 % of control"},
      {"measurement": "T/C", "setting": "endpoint: median survival time, dose: 100.0 micrograms/kg/injection, schedule: Q01DX009 (ip), vehicle: saline with Tween-80, higher = longer survival", "result": "104 % of control"}
    ]},
    {"smiles": "CC1=C2C(=C[C@@](C)(CO)[C@@H]2O)C(=O)[C@](C)(O)C12CC2", "values": [
      {"measurement": "T/C", "setting": "endpoint: mean tumor weight, dose: 0.05 mg/kg/injection, schedule: Q01DX011 (ip), vehicle: saline, higher = larger tumour", "result": "113 % of control"},
      {"measurement": "T/C", "setting": "endpoint: mean tumor weight, dose: 0.1 mg/kg/injection, schedule: Q01DX011 (ip), vehicle: saline, higher = larger tumour", "result": "102 % of control"},
      {"measurement": "T/C", "setting": "endpoint: mean tumor weight, dose: 0.2 mg/kg/injection, schedule: Q01DX011 (ip), vehicle: saline, higher = larger tumour", "result": "92 % of control"},
      {"measurement": "T/C", "setting": "endpoint: mean tumor weight, dose: 0.4 mg/kg/injection, schedule: Q01DX011 (ip), vehicle: saline, higher = larger tumour", "result": "19 % of control and 41 % of control"},
      {"measurement": "T/C", "setting": "endpoint: mean tumor weight, dose: 0.6 mg/kg/injection, schedule: Q01DX011 (ip), vehicle: saline, higher = larger tumour", "result": "20 % of control"}
    ]},
    {"smiles": "Cc1nn(-c2ccccc2)c(N)c1C#N", "values": [
      {"measurement": "T/C", "setting": "endpoint: median survival time, dose: 12.5 mg/kg/injection, schedule: Q01DX009 (ip), vehicle: other, higher = longer survival", "result": "94 % of control"},
      {"measurement": "T/C", "setting": "endpoint: median survival time, dose: 25.0 mg/kg/injection, schedule: Q01DX009 (ip), vehicle: other, higher = longer survival", "result": "98 % of control and 100 % of control"},
      {"measurement": "T/C", "setting": "endpoint: median survival time, dose: 50.0 mg/kg/injection, schedule: Q01DX009 (ip), vehicle: other, higher = longer survival", "result": "97 % of control"},
      {"measurement": "T/C", "setting": "endpoint: median survival time, dose: 100.0 mg/kg/injection, schedule: Q01DX009 (ip), vehicle: other, higher = longer survival", "result": "100 % of control"},
      {"measurement": "T/C", "setting": "endpoint: median survival time, dose: 200.0 mg/kg/injection, schedule: Q01DX009 (ip), vehicle: other, higher = longer survival", "result": "100 % of control"},
      {"measurement": "T/C", "setting": "endpoint: median survival time, dose: 400.0 mg/kg/injection, schedule: Q01DX009 (ip), vehicle: other, higher = longer survival", "result": "98 % of control"}
    ]},
    {"smiles": "COc1cccc2c1C(=O)c1c(O)c3c(c(O)c1C2=O)C[C@@](O)(C(=O)CO)C[C@@H]3OC1CC(N)C(O)C(C)O1", "note": "(some centres not stated)", "values": [
      {"measurement": "T/C", "setting": "endpoint: median survival time, dose: 0.03 mg/kg/injection, schedule: Q01DX009 (ip), vehicle: saline, higher = longer survival", "result": "88 % of control"},
      {"measurement": "T/C", "setting": "endpoint: median survival time, dose: 0.06 mg/kg/injection, schedule: Q01DX009 (ip), vehicle: saline, higher = longer survival", "result": "88 % of control"},
      {"measurement": "T/C", "setting": "endpoint: median survival time, dose: 0.12 mg/kg/injection, schedule: Q01DX009 (ip), vehicle: saline, higher = longer survival", "result": "100 % of control"},
      {"measurement": "T/C", "setting": "endpoint: median survival time, dose: 0.25 mg/kg/injection, schedule: Q01DX009 (ip), vehicle: saline, higher = longer survival", "result": "105 % of control"},
      {"measurement": "T/C", "setting": "endpoint: median survival time, dose: 0.25 mg/kg/injection, schedule: Q08HX024 (ip), vehicle: saline, higher = longer survival", "result": "113 % of control"},
      {"measurement": "T/C", "setting": "endpoint: median survival time, dose: 0.5 mg/kg/injection, schedule: Q08HX024 (ip), vehicle: saline, higher = longer survival", "result": "182 % of control"},
      {"measurement": "T/C", "setting": "endpoint: median survival time, dose: 1.0 mg/kg/injection, schedule: Q08HX024 (ip), vehicle: saline, higher = longer survival", "result": "89 % of control"},
      {"measurement": "T/C", "setting": "endpoint: median survival time, dose: 1.92 mg/kg/injection, schedule: Q04DX003 (ip), vehicle: saline, higher = longer survival", "result": "104 % of control and 106 % of control"},
      {"measurement": "T/C", "setting": "endpoint: median survival time, dose: 1.92 mg/kg/injection, schedule: Q04DX003 (iv), vehicle: saline, higher = longer survival", "result": "93 % of control and 108 % of control"},
      {"measurement": "T/C", "setting": "endpoint: median survival time, dose: 2.74 mg/kg/injection, schedule: Q04DX003 (ip), vehicle: saline, higher = longer survival", "result": "99 % of control and 103 % of control"},
      {"measurement": "T/C", "setting": "endpoint: median survival time, dose: 2.74 mg/kg/injection, schedule: Q04DX003 (iv), vehicle: saline, higher = longer survival", "result": "99 % of control and 111 % of control"},
      {"measurement": "T/C", "setting": "endpoint: median survival time, dose: 3.36 mg/kg/injection, schedule: Q01DX001 (ip), vehicle: saline, higher = longer survival", "result": "101 % of control and 102 % of control"},
      {"measurement": "T/C", "setting": "endpoint: median survival time, dose: 3.36 mg/kg/injection, schedule: Q01DX001 (iv), vehicle: saline, higher = longer survival", "result": "101 % of control and 105 % of control"},
      {"measurement": "T/C", "setting": "endpoint: median survival time, dose: 3.9 mg/kg/injection, schedule: Q04DX003 (ip), vehicle: saline, higher = longer survival", "result": "105 % of control and 123 % of control"},
      {"measurement": "T/C", "setting": "endpoint: median survival time, dose: 3.9 mg/kg/injection, schedule: Q04DX003 (iv), vehicle: saline, higher = longer survival", "result": "108 % of control and 113 % of control"},
      {"measurement": "T/C", "setting": "endpoint: median survival time, dose: 4.8 mg/kg/injection, schedule: Q01DX001 (ip), vehicle: saline, higher = longer survival", "result": "98 % of control and 102 % of control"},
      {"measurement": "T/C", "setting": "endpoint: median survival time, dose: 4.8 mg/kg/injection, schedule: Q01DX001 (iv), vehicle: saline, higher = longer survival", "result": "90 % of control and 102 % of control"},
      {"measurement": "T/C", "setting": "endpoint: median survival time, dose: 5.6 mg/kg/injection, schedule: Q04DX003 (iv), vehicle: saline, higher = longer survival", "result": "105 % of control"},
      {"measurement": "T/C", "setting": "endpoint: median survival time, dose: 6.86 mg/kg/injection, schedule: Q01DX001 (ip), vehicle: saline, higher = longer survival", "result": "117 % of control"},
      {"measurement": "T/C", "setting": "endpoint: median survival time, dose: 6.86 mg/kg/injection, schedule: Q01DX001 (iv), vehicle: saline, higher = longer survival", "result": "111 % of control and 114 % of control"},
      {"measurement": "T/C", "setting": "endpoint: median survival time, dose: 9.8 mg/kg/injection, schedule: Q01DX001 (iv), vehicle: saline, higher = longer survival", "result": "105 % of control"},
      {"measurement": "T/C", "setting": "endpoint: median survival time, dose: 14.0 mg/kg/injection, schedule: Q01DX001 (ip), vehicle: saline, higher = longer survival", "result": "99 % of control"}
    ]}
  ]
}
